From patent US20170217899A1, “NOVEL HALOGEN-SUBSTITUTED COMPOUNDS” (BAYER CROPSCIENCE AKTIENGESELLSCHAFT, priority 2014, published 2017)
Like-named read-outs stand apart in the source and are kept apart here.

How the values were obtained:
[1] = tested on: Myzus persicae; assay: Myzus persicae spray test; format: in vivo; details: 100 g/ha, Chinese cabbage leaf disks, all instars, after 6 days
Protocol: Myzus Persicae—Spray Test
(§1) To produce a suitable preparation of active compound, 1 part by weight of active compound is mixed with the stated amount of solvents and is diluted with water, containing an emulsifier concentration of 1000 ppm, to the desired concentration. Further test concentrations are prepared by dilution with emulsifier containing water.
Chinese cabbage (Brassica pekinensis) leaf disks infected with all instars of the green peach aphid (Myzus persicae), are sprayed with a preparation of the active ingredient of the desired concentration.
After 6 days mortality in % is determined. 100% means all aphids have been killed and 0% means none of the aphids have been killed.

[2] = logP determination by HPLC on reversed-phase column (C18), EEC Directive 79/831 Annex V.A8; format: physicochemical; details: for chromatographic logP: reversed-phase HPLC column (C18)
[3] = tested on: Spodoptera frugiperda; assay: Spodoptera frugiperda spray test; format: in vivo; details: for mortality: 100 g/ha, maize leaf sections, larvae, after 7 days
Protocol: Spodoptera Frugiperda—Spray Test
as §1
Maize (Zea mays) leaf sections are sprayed with a preparation of the active ingredient of the desired concentration. Once dry, the leaf sections are infested with fall armyworm larvae (Spodoptera frugiperda).
After 7 days mortality in % is determined. 100% means all caterpillars have been killed and 0% means none of the caterpillars have been killed.

[4] = tested on: Tetranychus urticae; assay: Tetranychus urticae spray test OP-resistant; format: in vivo; details: in Phaseolus vulgaris, foliar, 144 h
Protocol: Tetranychus urticae—Spray Test OP-Resistant
as §1
French bean (Phaseolus vulgaris) leaf disks infected with all instars of the two spotted spidermite (Tetranychus urticae), are sprayed with a preparation of the active ingredient of the desired concentration.
After 6 days mortality in % is determined. 100% means all spider mites have been killed and 0% means none of the spider mites have been killed.

[5] = tested on: Phaedon cochleariae; assay: Phaedon cochleariae spray test; format: in vivo; details: in Brassica rapa, foliar, 168 h
Protocol: Phaedon cochleariae—Spray Test
as §1
Chinese cabbage (Brassica pekinensis) leaf disks are sprayed with a preparation of the active ingredient of the desired concentration. Once dry, the leaf disks are infested with mustard beetle larvae (Phaedon cochleariae).
After 7 days mortality in % is determined. 100% means all beetle larvae have been killed and 0% means none of the beetle larvae have been killed.

[6] = tested on: Boophilus microplus; assay: Boophilus microplus injection test (BOOPMI Inj); format: in vivo; details: 20 μg/animal, injection into adult engorged female ticks, egg deposition after 7 days
Protocol: Boophilus Microplus—Injectiontest (BOOPMI Inj)
(§2) Solvent: Dimethyl Sulfoxide
To produce a suitable preparation of active compound, 10 mg of active compound are dissolved in 0.5 ml solvent, and the concentrate is diluted with solvent to the desired concentration.
Five adult engorged female ticks (Boophilus microplus) are injected with 1 μl compound solution into the abdomen. The ticks are transferred into replica plates and incubated in a climate chamber.
After 7 days egg deposition of fertile eggs is monitored. Eggs where fertility is not visible are stored in a climate chamber till hatching after about 42 days. An efficacy of 100% means all eggs are infertile; 0% means all eggs are fertile.

[7] = tested on: Lucilia cuprina; assay: Lucilia cuprina test (LUCICU); format: in vivo; details: 100 ppm, 1st instar larvae, after 2 days
Protocol: Lucilia cunrina—Test (LUCICU)
as §2
10 mg active compound are dissolved in 0.5 ml Dimethylsulfoxid. Serial dilutions are made to obtain the desired rates.
Approximately 20 1st instar larvae of the Australian sheep blowfly (Lucilia cuprina) are transferred into a test tube containing minced horse meat and compound solution of the desired concentration.
After 2 days mortality in % is determined. 100% means all the larvae have been killed; 0% means none of the larvae have been killed.

[8] = tested on: Ctenocephalides felis; assay: Ctenocephalides felis oral test (CTECFE); format: in vivo; details: 100 ppm in cattle blood, adult cat fleas, after 2 days
Protocol: Ctenocephalides felis—Oral Test (CTECFE)
as §2
To produce a suitable preparation of active compound, 10 mg of active compound are dissolved in 0.5 ml solvent, and the concentrate is diluted with cattle blood to the desired concentration.
Approximately 20 adult unfed cat fleas (Cienocephalides felis) are placed in flea chambers. The blood chamber, sealed with parafilm on the bottom, are filled with cattle blood supplied with compound solution and placed on the gauze covered top of the flea chamber, so that the fleas are able to suck the blood. The blood chamber is heated to 37° C. whereas the flea chamber is kept at room temperature.
After 2 days mortality in % is determined. 100% means all the fleas have been killed; 0% means none of the fleas have been killed.

[9] = HPLC, C18, acetonitrile (0.1% formic acid)/water (0.09% formic acid) gradient
[10] = HPLC, C18, acetonitrile (0.1% formic acid)/water (0.09% formic acid) gradient, read-out: logP
[11] = intermediates, values in text, same HPLC method, read-out: log P (HPLC-MS)
[12] = intermediates, values in text, same HPLC method

chromatographic logP [2, 11] | Molecule | logP [2, 9] | also measured
– | Cn1nc(C2(Cl)CC2)c(C(F)F)c1-n1cc(-c2ccc(Cl)c(C(=O)NC3(C#N)CC3)c2)cn1 [Example I-7] | 2.96 | mortality [1]: 90%; mortality [3]: 100%
– | Cn1nc(C2(F)CC2)c(C(F)F)c1-n1cc(-c2ccc(Cl)c(C(=O)NC3(C#N)CC3)c2)cn1 [Example I-2, 2-chloro-N-(1-cyanocyclopropyl)-5-[4′-(difluoromethyl)-5′-(1-fluorocyclopropyl)-2′-methyl-2′H-1,3′-bipyrazol-4-yl]benzamide] | – | chromatographic logP [2, 10]: 2.78; mortality at 100 g/ha [4]: 100%; mortality at 100 g/ha ([3]; Spodoptera frugiperda, in Zea mays, 168 h): 100%; mortality at 100 g/ha [5]: 100%
1.71 | Cn1nc(C2(F)CC2)c(C=O)c1Cl [Example 24, 5-chloro-3-(1-fluorocyclopropyl)-1-methyl-1H-pyrazole-4-carbaldehyde] | – | –
– | Cn1nc(C2(F)CC2)c([N+](=O)[O-])c1-n1cc(-c2ccc(Cl)c(C(=O)NC3CC3)c2)cn1 [Example I-5] | 2.70 | –
– | Cn1nc(C2(F)CC2)c([N+](=O)[O-])c1-n1cc(-c2ccc(Cl)c(C(=O)NC3(C#N)CC3)c2)cn1 [Example I-4] | 2.69 | efficacy (infertile eggs) [6]: 100%; mortality [7]: 100%; mortality [8]: 100%
1.16 | CN(C)/C=C/C(=O)C1(F)CC1 [Example 16, (2E)-3-(dimethylamino)-1-(1-fluorocyclopropyl)prop-2-en-1-one] | – | –
0.38 | CN1N=C(C2(F)CC2)CC1=O [Example 32, 5-(1-fluorocyclopropyl)-2-methyl-2,4-dihydro-3H-pyrazol-3-one] | – | –
– | Cn1nc(C2(F)CC2)c(C(F)(F)F)c1-n1cc(-c2ccc(Cl)c(C(=O)NC3(C#N)CC3)c2)cn1 [Example I-1, 2-chloro-N-(1-cyanocyclopropyl)-5-[5′-(1-fluorocyclopropyl)-2′-methyl-4′-(trifluoromethyl)-2′H-1,3′-bipyrazol-4-yl]benzamide] | – | chromatographic logP [2, 10]: 3.09
1.31 | N#CC1(NC(=O)c2cc(-c3cn[nH]c3)ccc2Cl)CC1 [Example 14, 2-chloro-N-(1-cyanocyclopropyl)-5-(1H-pyrazol-4-yl)benzamide] | – | –
– | Cn1nc(C2(F)CC2)c(C(F)F)c1-n1cc(-c2cnc(Cl)c(C(=O)NC3CC3)c2)cn1 [Example I-12] | 2.42 | –
– | Cn1nc(C2(Cl)CC2)c(C(F)F)c1-n1cc(-c2ccc(Cl)c(C(=O)NC3CC3)c2)cn1 [Example I-8] | 3.05 | mortality [3]: 100%
– | Cn1nc(C2(F)CC2)c(C(F)F)c1-n1cc(-c2ccc(Cl)c(C(=O)NC3CC3)c2)cn1 [Example I-3] | 2.81 | –
– | Cn1nc(C2(Cl)CC2)c(C(F)F)c1-n1cc(-c2cnc(Cl)c(C(=O)NC3(C#N)CC3)c2)cn1 [Example I-9] | 2.63 | –
– | Cn1nc(C2(Cl)CC2)c(C(F)F)c1-n1cc(-c2cnc(Cl)c(C(=O)NC3CC3)c2)cn1 [Example I-10] | 2.60 | –
– | 4′-(difluoromethyl)-5′-(1-fluorocyclopropyl)-4-iodo-2′-methyl-2′H-1,3′-bipyrazole [Example 26] | – | log P (HPLC-MS) [2, 12]: 3.37
– | Cn1nc(C2(F)CC2)c(C(F)F)c1-n1cc(-c2cnc(Cl)c(C(=O)NC3(C#N)CC3)c2)cn1 [Example I-11] | 2.44 | –
– | Cn1nc(C2(Br)CC2)c([N+](=O)[O-])c1-n1cc(-c2ccc(Cl)c(C(=O)NC3CC3)c2)cn1 [Example I-6] | 2.98 | –
2.71 | Cn1nc(C2(F)CC2)c(C(F)F)c1-n1cc(-c2ccc(Cl)c(C(=O)O)c2)cn1 [Example 29, 2-chloro-5-[4′-(difluoromethyl)-5′-(1-fluorocyclopropyl)-2′-methyl-2′H-1,3′-bipyrazol-4-yl]benzoic acid] | – | –
3.63 | COC(=O)c1cc(-c2cnn(-c3c(C(F)F)c(C4(F)CC4)nn3C)c2)ccc1Cl [Example 28, methyl 2-chloro-5-[4′-(difluoromethyl)-5′-(1-fluorocyclopropyl)-2′-methyl-2′H-1,3′-bipyrazol-4-yl]benzoate] | – | –
– | 5′-(1-fluorocyclopropyl)-4-iodo-2′-methyl-2′H-1,3′-bipyrazole-4′-carbaldehyde [Example 25] | – | log P (HPLC-MS) [2, 12]: 2.86
